Measurements as given in US12582653B2, “Method for treating idiopathic pulmonary fibrosis” (BEIJING TIDE PHARMACEUTICAL CO., LTD., priority 2020, dated 2026).

Key:
[1] = test system: BLM-induced mouse IPF model; assay: BLM-induced mouse IPF model (Example 2); assay type: in vivo; conditions: for up-regulation of TIMP-1 mRNA expression in the lung tissue induced by bleomycin / up-regulation of COL1A1 mRNA expression in the lung tissue induced by bleomycin: real-time fluorescent quantitative PCR, β-actin reference; for up-regulation of TIMP-1 mRNA expression in the lung tissue induced by bleomycin: FIG. 5A; for up-regulation of COL1A1 mRNA expression in the lung tissue induced by bleomycin: FIG. 5B
Experimental: 60 C57BL/6 mice (purchased from SLAC, Shanghai) were adaptively fed for 1 week, and 50 animals were randomly selected. 3 mg/kg of bleomycin (BLM, purchased from SIGMA, #SIGMA-P9564) was administered through intratracheal (IT) injection to the mice to establish the IPF animal model. The remaining 10 animals were injected with physiological saline at a volume same as the injected BLM, and served as the normal group (N=10). The day of the injection of bleomycin was set as day 0 (DO); on day 6, the animals were randomly divided into 4 groups according to body weight: vehicle group (N=14), compound 007 administration group (N=12), compound 128 administration group (N=12), and positive control pirfenidone (purchased from SIGMA, #SIGMA-P2116) administration group (N=12).
The animals in each group were administered on days 8-21: the animals in the normal group and vehicle group were intragastrically administered with vehicle 1 (vehicle 1: 20% PEG 400+5% Tween 80+75% ddH2O), the animals in the compound 007 administration group were intragastrically administered with compound 007 (formulated with vehicle 1), the animals in the compound 128 administration group were intragastrically administered with compound 128 (formulated with vehicle 1), and the animals in the Pirfenidone administration group were intragastrically administered with pirfenidone (vehicle 2: 0.2% Methyl cellulose+0.5% Tween 80+99.3% ddH2O).
The body weight and its changes were recorded daily (the calculation formula for the body weight change on day 21: Body weight change on day 21=Body weight on day 21—Body weight on day 0), and the results are shown in FIGS. 1A and 1B.
The animals were euthanized 2 hours after the administration on day 21, and the alveolar lavage fluid was collected for white blood cell (WBC) counting. According to FIG. 3, there was no significant difference in the total white blood cell count in the alveolar lavage fluid of the animals in each administration group.
The left lung of the animals was fixed for histopathological examination, and the Ashcroft score of lung injury was performed by Masson Trichome staining. The scoring standard is as reported in Ashcroft T et al., Journal of clinical pathology, 1988. After 100 times magnification, each successive field was scored (ranging from 0 (normal lung)) to 8 (total fibrous obliteration within the field).
The mRNA levels of lung tissue fibrosis-associated protein collagen 1A1 (COL1A1) and tissue inhibitor of metal matrix protein 1 (TIMP-1) in the lung tissue after the administration was detected by a real-time fluorescent quantitative PCR method. Specifically, the lung tissue fragments were transferred to a centrifuge tube containing 1 mL of TRIzol reagent (Invitrogen, catalog No. 15596018). The lung tissue was ground at low temperature by a tissue grinder. Total RNA in cells was extracted. TransScript All-in-One First-Strand cDNA Synthesis SuperMix for qPCR (One-Step gDNA Removal) (TransGen, catalog No. AT341-02) kit was used for reverse transcription synthesis of cDNA. The mRNA expression changes of COL1A1 and TIMP-1 in the lung tissue was detected by a fluorescence quantitative PCR method.
In the real-time fluorescent quantitative PCR method, β-actin gene was used as the internal reference gene to normalize the data. All primer sequences were from the PrimerBank website, ID No.: 34328108a1 (COL1A1 primer), 6755795a1 (TIMP-1 primer) and 6671509a1 (β-actin primer). All of the 3 primers were synthesized by Invitrogen.

[2] = test system: BLM-induced mouse IPF model; assay: BLM-induced mouse IPF model, different doses (Example 3); assay type: in vivo, C57BL/6J mice
Experimental: After adaptive feeding, C57BL/6J mice were randomly divided into 2 groups according to body weight: in one group, 15 animals were administered with 50 μL physiological saline through intratracheal injection; and in another group, 90 animals were administered with 50 μL bleomycin (2.5 mg/kg) through intratracheal injection to establish the IPF model. On Day 7 after the establishment of the animal model, animals were randomly grouped according to the weight change (the difference between the weight on Day 7 after the establishment of the model and the day when the model was established). Drugs were administered for 14 consecutive days from the eighth day after the establishment of the animal model. […] The bronchoalveolar lavage fluid (BALF) was collected for white blood cell count. The left lung of the animals was fixed for preparing histopathological slide. H&E and Masson Trichome staining were performed to score the degree of lung injury and fibrosis. Pulmonary fibrosis scoring standard was according to “Standardized quantification of pulmonary fibrosis in histological samples”; lung tissue injury grade score is 0-16, mainly evaluated from four aspects including inflammatory cell infiltration (0-4), hemorrhage (0-4), interstitial and alveolar edema (0-4) and alveolar septum thickness (0-4). A higher score indicate a higher degree of lung tissue injury.

| SMILES | survival rate of the animals at the end of the test ([1]; 100 mg/kg orally once a day, 14 days (days 8-21), FIG. 2) | collagen accumulation in lung and degree of lung fibrosis (Ashcroft score, Masson Trichome staining) ([1]; 100 mg/kg orally once a day, 14 days, FIGS. 4A and 4B) | therapeutic effect on lung fibrosis compared with pirfenidone and compound 128 ([1]; 007 and 128 at 100 mg/kg once a day, pirfenidone 90 mg/kg twice a day, FIGS. 4A and 4B) | up-regulation of TIMP-1 mRNA expression in the lung tissue induced by bleomycin [1] | up-regulation of COL1A1 mRNA expression in the lung tissue induced by bleomycin [1] | therapeutic effects compared with pirfenidone and nintedanib ([2]; 30 mpk orally once a day, pirfenidone 90 mg/kg twice a day, nintedanib 30 mg/kg once a day) | therapeutic effects compared with pirfenidone and nintedanib ([2]; 100 mpk orally once a day, pirfenidone 90 mg/kg twice a day, nintedanib 30 mg/kg once a day) | lung injury and fibrosis degree improvements compared with pirfenidone and nintedanib ([2]; 300 mpk orally once a day, pirfenidone 90 mg/kg twice a day, nintedanib 30 mg/kg once a day) | lung injury (H&E score 0-16) ([2]; compared with the model group, FIGS. 7A and 7B) | fibrosis degree (Masson Trichome score) ([2]; compared with the model group, FIGS. 8A and 8B) | infiltration of white blood cells in the lung (BALF white blood cell count) ([2]; compared with the model group, orally once a day, 14 days, FIG. 6) |
| --- | --- | --- | --- | --- | --- | --- | --- | --- | --- | --- | --- |
| Cn1c(C(=O)N2CC(F)(F)C2)cc2ccc(-c3nccc(Nc4ccc(-c5cn[nH]c5)cc4)n3)cc21 [Compound 007] | significantly higher | significantly reduced | significantly better than that of pirfenidone and compound 128 | significantly inhibited | significantly inhibited | equivalent to those of pirfenidone and nintedanib | equivalent to those of pirfenidone and nintedanib | superior to pirfenidone and nintedanib | significantly improved | significantly improved | significantly reduce |
| Cc1ccc(=O)n(-c2ccccc2)c1 [Pirfenidone, reference compound] |  |  |  | moderate inhibitory effect without statistic difference | significantly inhibited |  |  |  |  |  |  |
